Results reported in ChEMBL document CHEMBL1156106 (J Med Chem, 2009).

Legend:
[1] = biological target: Sodium-dependent noradrenaline transporter (Homo sapiens, UniProt P23975); experiment: Displacement of [125I]RTI55 from cloned human NET expressed in HEK293 cells; format: cell-based
[2] = biological target: T1, Sodium-dependent serotonin transporter (Homo sapiens, UniProt P31645); experiment: biochemical; format: cell-based, HEK293
[3] = biological target: Sodium-dependent dopamine transporter (Homo sapiens, UniProt Q01959); experiment: Displacement of [125I]RTI55 from cloned human DAT expressed in HEK293 cells; format: cell-based
Chain of Sodium-dependent dopamine transporter (Q01959 whole entry): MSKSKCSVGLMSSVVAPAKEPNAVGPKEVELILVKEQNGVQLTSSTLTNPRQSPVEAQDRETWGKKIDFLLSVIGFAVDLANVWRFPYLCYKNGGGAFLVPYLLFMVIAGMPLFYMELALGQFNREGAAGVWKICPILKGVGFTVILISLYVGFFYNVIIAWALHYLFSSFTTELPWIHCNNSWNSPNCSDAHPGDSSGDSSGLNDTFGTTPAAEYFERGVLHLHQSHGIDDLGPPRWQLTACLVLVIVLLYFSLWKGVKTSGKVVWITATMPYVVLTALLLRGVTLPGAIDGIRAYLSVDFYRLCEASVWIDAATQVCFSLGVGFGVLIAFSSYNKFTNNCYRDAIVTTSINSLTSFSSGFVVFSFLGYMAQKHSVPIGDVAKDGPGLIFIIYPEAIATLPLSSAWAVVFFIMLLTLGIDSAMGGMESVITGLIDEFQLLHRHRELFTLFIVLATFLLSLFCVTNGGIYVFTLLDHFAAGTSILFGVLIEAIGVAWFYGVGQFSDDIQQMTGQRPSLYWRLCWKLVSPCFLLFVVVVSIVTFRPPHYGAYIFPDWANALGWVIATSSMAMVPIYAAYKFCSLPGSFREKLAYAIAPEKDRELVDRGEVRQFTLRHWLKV

Mus musculus [4] = experiment: Antidepressant activity in ip dosed mouse assessed as stimulation of locomotor activity; format: functional
Mus musculus [5] = experiment: Antidepressant activity in ip dosed mouse assessed as stimulation of locomotor activity relative to cocaine; format: functional
Mus musculus [6] = experiment: Antidepressant activity in ip dosed mouse assessed as duration of locomotor activity; format: functional
Mus musculus [7] = experiment: Antidepressant activity in ip dosed mouse assessed as time to reach peak stimulation of locomotor activity; format: functional
Rattus norvegicus [8] = experiment: Effect on behavioural activity in rat assessed as cocaine-induced lever response at 10 mg/kg, ip pretreated with cocaine for 15 mins by drug-discrimination studies; format: functional; settings: route intraperitoneal
Rattus norvegicus [9] = experiment: Effect on behavioural activity in rat assessed as cocaine-induced lever response at 25 mg/kg, ip pretreated with cocaine for 15 mins by drug-discrimination studies; format: functional; settings: route intraperitoneal
Rattus norvegicus [10] = experiment: Effect on behavioural activity in ip dosed rat assessed as cocaine-induced lever response pretreated with cocaine by drug-discrimination studies; format: functional
Rattus norvegicus [11] = experiment: Effect on behavioural activity in rat assessed as cocaine-induced lever response at 2.5 mg/kg, po pretreated with cocaine for 45 mins by drug-discrimination studies; format: functional
Rattus norvegicus [12] = experiment: Effect on behavioural activity in rat assessed as cocaine-induced lever response at 10 mg/kg, po pretreated with cocaine for 180 mins by drug-discrimination studies; format: functional
Rattus norvegicus [13] = experiment: Effect on behavioural activity in rat assessed as cocaine-induced lever response at 2.5 mg/kg, po pretreated with cocaine for 180 mins by drug-discrimination studies; format: functional
Rattus norvegicus [14] = experiment: Effect on behavioural activity in rat assessed as cocaine-induced lever response at 5 mg/kg, po pretreated with cocaine for 180 mins by drug-discrimination studies; format: functional
Rattus norvegicus [15] = experiment: Effect on behavioural activity in rat assessed as cocaine-induced lever response at 5 mg/kg, po pretreated with cocaine for 360 mins by drug-discrimination studies; format: functional
Rattus norvegicus [16] = experiment: Effect on behavioural activity in rat assessed as cocaine-induced lever response at 10 mg/kg, po pretreated with cocaine for 90 mins by drug-discrimination studies; format: functional
Rattus norvegicus [17] = experiment: Effect on behavioural activity in rat assessed as cocaine-induced lever response at 5 mg/kg, ip pretreated with cocaine for 15 mins by drug-discrimination studies; format: functional; settings: route intraperitoneal
Rattus norvegicus [18] = experiment: Effect on behavioural activity in rat assessed as cocaine-induced lever response at 10 mg/kg, po pretreated with cocaine for 360 mins by drug-discrimination studies; format: functional
Rattus norvegicus [19] = experiment: Effect on behavioural activity in rat assessed as cocaine-induced lever response at 2.5 mg/kg, ip pretreated with cocaine for 15 mins by drug-discrimination studies; format: functional; settings: route intraperitoneal
Rattus norvegicus [20] = experiment: Effect on behavioural activity in po dosed rat assessed as cocaine-induced lever response pretreated with cocaine by drug-discrimination studies; format: functional
Rattus norvegicus [21] = experiment: Effect on behavioural activity in rat assessed as cocaine-induced lever response at 2.5 mg/kg, po pretreated with cocaine for 360 mins by drug-discrimination studies; format: functional
Rattus norvegicus [22] = experiment: Effect on behavioural activity in rat assessed as cocaine-induced lever response at 5 mg/kg, po pretreated with cocaine for 45 mins by drug-discrimination studies; format: functional
Rattus norvegicus [23] = experiment: Effect on behavioural activity in rat assessed as cocaine-induced lever response at 2.5 mg/kg, po pretreated with cocaine for 90 mins by drug-discrimination studies; format: functional
Rattus norvegicus [24] = experiment: Effect on behavioural activity in rat assessed as cocaine-induced lever response at 5 mg/kg, po pretreated with cocaine for 90 mins by drug-discrimination studies; format: functional
Rattus norvegicus [25] = experiment: Effect on behavioural activity in rat assessed as cocaine-induced lever response at 25 mg/kg, po pretreated with cocaine for 45 mins by drug-discrimination studies; format: functional
Rattus norvegicus [26] = experiment: Effect on behavioural activity in rat assessed as cocaine-induced lever response at 50 mg/kg, po pretreated with cocaine for 90 mins by drug-discrimination studies; format: functional
Rattus norvegicus [27] = experiment: Effect on behavioural activity in rat assessed as cocaine-induced lever response at 25 mg/kg, po pretreated with cocaine for 180 mins by drug-discrimination studies; format: functional
Rattus norvegicus [28] = experiment: Effect on behavioural activity in rat assessed as cocaine-induced lever response at 50 mg/kg, po pretreated with cocaine for 45 mins by drug-discrimination studies; format: functional
Rattus norvegicus [29] = experiment: Effect on behavioural activity in rat assessed as cocaine-induced lever response at 50 mg/kg, po pretreated with cocaine for 360 mins by drug-discrimination studies; format: functional
Rattus norvegicus [30] = experiment: Effect on behavioural activity in rat assessed as cocaine-induced lever response at 10 mg/kg, po pretreated with cocaine for 45 mins by drug-discrimination studies; format: functional
Rattus norvegicus [31] = experiment: Effect on behavioural activity in rat assessed as cocaine-induced lever response at 25 mg/kg, po pretreated with cocaine for 360 mins by drug-discrimination studies; format: functional
Rattus norvegicus [32] = experiment: Effect on behavioural activity in rat assessed as cocaine-induced lever response at 25 mg/kg, po pretreated with cocaine for 90 mins by drug-discrimination studies; format: functional
Rattus norvegicus [33] = experiment: Effect on behavioural activity in rat assessed as cocaine-induced lever response at 50 mg/kg, po pretreated with cocaine for 180 mins by drug-discrimination studies; format: functional
Rattus norvegicus [34] = experiment: Effect on behavioural activity in rat assessed as cocaine-induced lever response at 5 mg/kg, ip pretreated with cocaine for 30 mins by drug-discrimination studies; format: functional; settings: route intraperitoneal
Rattus norvegicus [35] = experiment: Effect on behavioural activity in rat assessed as cocaine-induced lever response at 2.5 mg/kg, ip pretreated with cocaine for 30 mins by drug-discrimination studies; format: functional; settings: route intraperitoneal
Rattus norvegicus [36] = experiment: Effect on behavioural activity in rat assessed as cocaine-induced lever response at 25 mg/kg, ip pretreated with cocaine for 30 mins by drug-discrimination studies; format: functional; settings: route intraperitoneal
Rattus norvegicus [37] = experiment: Effect on behavioural activity in rat assessed as cocaine-induced lever response at 10 mg/kg, ip pretreated with cocaine for 30 mins by drug-discrimination studies; format: functional; settings: route intraperitoneal
Rattus norvegicus [38] = experiment: Effect on behavioural activity in rat assessed as cocaine-induced lever response at 50 mg/kg, ip pretreated with cocaine for 15 mins by drug-discrimination studies; format: functional; settings: route intraperitoneal
[39] = biological target: T1, Sodium-dependent serotonin transporter; experiment: Inhibition of [3H]serotonin reuptake at human SERT expressed in HEK293 cells; format: cell-based

T1 sequence (P31645 whole entry): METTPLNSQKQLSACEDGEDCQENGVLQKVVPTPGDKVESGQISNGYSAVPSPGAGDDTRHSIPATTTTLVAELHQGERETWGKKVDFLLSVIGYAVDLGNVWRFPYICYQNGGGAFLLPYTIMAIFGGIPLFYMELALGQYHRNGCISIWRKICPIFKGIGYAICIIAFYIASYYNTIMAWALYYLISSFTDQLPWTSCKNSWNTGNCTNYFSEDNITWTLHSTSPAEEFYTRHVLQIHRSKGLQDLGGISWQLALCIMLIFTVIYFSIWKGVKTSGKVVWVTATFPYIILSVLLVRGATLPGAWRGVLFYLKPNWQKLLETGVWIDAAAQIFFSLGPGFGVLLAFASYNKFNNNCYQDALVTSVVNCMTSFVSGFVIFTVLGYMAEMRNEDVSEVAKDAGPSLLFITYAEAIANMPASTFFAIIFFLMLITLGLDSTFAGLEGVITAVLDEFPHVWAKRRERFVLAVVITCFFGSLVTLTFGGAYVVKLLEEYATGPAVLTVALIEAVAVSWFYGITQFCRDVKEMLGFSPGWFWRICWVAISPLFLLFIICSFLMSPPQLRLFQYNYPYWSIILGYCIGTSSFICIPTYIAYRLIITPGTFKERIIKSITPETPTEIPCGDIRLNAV
Chain of Sodium-dependent noradrenaline transporter (P23975 whole entry): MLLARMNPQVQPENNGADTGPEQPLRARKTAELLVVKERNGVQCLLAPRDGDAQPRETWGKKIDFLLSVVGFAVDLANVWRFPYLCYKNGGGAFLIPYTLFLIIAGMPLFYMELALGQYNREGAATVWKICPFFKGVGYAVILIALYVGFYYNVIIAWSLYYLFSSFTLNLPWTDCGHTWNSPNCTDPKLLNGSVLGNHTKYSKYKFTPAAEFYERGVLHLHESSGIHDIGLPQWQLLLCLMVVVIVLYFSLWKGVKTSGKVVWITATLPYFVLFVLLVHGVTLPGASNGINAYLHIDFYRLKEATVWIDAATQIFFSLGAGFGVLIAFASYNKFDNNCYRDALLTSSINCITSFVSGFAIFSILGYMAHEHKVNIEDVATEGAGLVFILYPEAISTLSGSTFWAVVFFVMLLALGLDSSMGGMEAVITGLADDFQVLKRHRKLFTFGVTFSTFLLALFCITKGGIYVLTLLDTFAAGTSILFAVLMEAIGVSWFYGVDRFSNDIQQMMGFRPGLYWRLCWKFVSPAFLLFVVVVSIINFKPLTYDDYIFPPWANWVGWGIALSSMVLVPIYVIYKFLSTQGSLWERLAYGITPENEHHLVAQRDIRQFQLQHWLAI

CC(NC(C)(C)C)C(=O)c1cccs1 (centres undefined)
Ki [1]: > 10 µM
Ki [2]: > 10 µM
Ki [3]: > 10 µM

Cc1ccc(C(=O)C(C)NC(C)(C)C)cc1Cl (centres undefined)
ED50 (Mus musculus [4]): ≥ 35.5 mg/kg
Activity (Mus musculus [5]): >=77%
Time (Mus musculus [6]): 60 min
Time to peak locomotor stimulation (Mus musculus [7]): 10 min

CC(C)(C)NC1CCc2ccc(Cl)cc2C1=O (centres undefined)
ED50 (Mus musculus [4]): 2.6 mg/kg
Ki [1]: > 10 µM
Ki [2]: > 10 µM
Ki [3]: > 10 µM

CC(C(=O)c1cccc(Cl)c1)N(C)C (centres undefined)
Activity (Rattus norvegicus [8]): 83.2%
ED50 (Mus musculus [4]): 9.3 mg/kg
Activity (Rattus norvegicus [9]): 100%
ED50 (Rattus norvegicus [10]): 5.9 mg/kg
Activity (Rattus norvegicus [11]): 19%
Activity (Mus musculus [5]): 64%
Activity (Rattus norvegicus [12]): 33%
Ki [2]: > 10 µM
Activity (Rattus norvegicus [13]): 33%
Activity (Rattus norvegicus [14]): 0%
Activity (Rattus norvegicus [15]): 0%
Time (Mus musculus [6]): 180 min
Activity (Rattus norvegicus [16]): 100%
Activity (Rattus norvegicus [17]): 83.3%
Activity (Rattus norvegicus [18]): 18%
Activity (Rattus norvegicus [19]): 0%
ED50 (Rattus norvegicus [20]): 5.3 mg/kg
Activity (Rattus norvegicus [21]): 0%
Time to peak locomotor stimulation (Mus musculus [7]): 90 min
Activity (Rattus norvegicus [22]): 38%
Activity (Rattus norvegicus [23]): 0%

Cc1cccc(C(=O)C(C)NC(C)(C)C)c1 (centres undefined)
Ki [1]: > 10 µM
Activity (Mus musculus [5]): 76%
Ki [2]: > 10 µM
Time (Mus musculus [6]): 50 min
Time to peak locomotor stimulation (Mus musculus [7]): 10 min

CCC(NC(C)(C)C)C(=O)c1cccc(Cl)c1 (centres undefined)
ED50 (Mus musculus [4]): 18.6 mg/kg
Activity (Rattus norvegicus [9]): 100%
ED50 (Rattus norvegicus [10]): 12.2 mg/kg
Activity (Mus musculus [5]): 62%
Time (Mus musculus [6]): 360 min
Activity (Rattus norvegicus [17]): 33.4%
Activity (Rattus norvegicus [19]): 0.6%
Time to peak locomotor stimulation (Mus musculus [7]): 0 min

CCCNC(C)C(=O)c1cccc(Cl)c1 (centres undefined)
Ki [1]: > 10 µM
Ki [2]: > 10 µM
Ki [3]: > 10 µM

CC(CNC(C)(C)C)C(=O)c1cccc(Cl)c1 (centres undefined)
Ki [1]: > 10 µM
Ki [2]: > 10 µM
Ki [3]: > 10 µM

CC1C(=O)c2cc(Cl)ccc2CN1C(C)(C)C (centres undefined)
Ki [1]: > 10 µM
Ki [2]: > 10 µM
Ki [3]: > 10 µM

CC(NC(C)(C)C)C(=O)c1ccccc1 (centres undefined)
Activity (Rattus norvegicus [8]): 83.3%
ED50 (Mus musculus [4]): 11.2 mg/kg
Activity (Rattus norvegicus [9]): 83.4%
Activity (Rattus norvegicus [24]): 0%
Activity (Rattus norvegicus [25]): 51%
ED50 (Rattus norvegicus [10]): 1 mg/kg
Activity (Rattus norvegicus [11]): 6%
Activity (Rattus norvegicus [26]): 33%
Activity (Mus musculus [5]): 95%
Activity (Rattus norvegicus [27]): 20%
Activity (Rattus norvegicus [28]): 83%
Activity (Rattus norvegicus [12]): 3%
Activity (Rattus norvegicus [29]): 4%
Ki [2]: > 10 µM
Activity (Rattus norvegicus [30]): 0%
Activity (Rattus norvegicus [13]): 0%
Activity (Rattus norvegicus [14]): 33%
Activity (Rattus norvegicus [15]): 0%
Time (Mus musculus [6]): 120 min
Activity (Rattus norvegicus [16]): 0%
Activity (Rattus norvegicus [17]): 32.8%
Activity (Rattus norvegicus [18]): 0%
Activity (Rattus norvegicus [31]): 34%
Activity (Rattus norvegicus [19]): 16%
ED50 (Rattus norvegicus [20]): 25.2 mg/kg
Activity (Rattus norvegicus [21]): 0%
Activity (Rattus norvegicus [32]): 33%
Time to peak locomotor stimulation (Mus musculus [7]): 0 min
Activity (Rattus norvegicus [33]): 50%
Activity (Rattus norvegicus [22]): 0%
Activity (Rattus norvegicus [23]): 1%

CCCCC(NC(C)(C)C)C(=O)c1cccc(Cl)c1 (centres undefined)
ED50 (Mus musculus [4]): 10.2 mg/kg
Activity (Rattus norvegicus [24]): 0%
Activity (Rattus norvegicus [25]): 0%
ED50 (Rattus norvegicus [10]): 10 mg/kg
Activity (Rattus norvegicus [26]): 17%
Activity (Mus musculus [5]): 136%
Activity (Rattus norvegicus [27]): 0%
Activity (Rattus norvegicus [28]): 83%
Activity (Rattus norvegicus [34]): 17.2%
Activity (Rattus norvegicus [12]): 29%
Activity (Rattus norvegicus [29]): 0%
Activity (Rattus norvegicus [35]): 0%
Ki [2]: > 10 µM
Activity (Rattus norvegicus [36]): 100%
Activity (Rattus norvegicus [30]): 0%
Activity (Rattus norvegicus [14]): 26%
Activity (Rattus norvegicus [15]): 0%
Time (Mus musculus [6]): 40 min
Activity (Rattus norvegicus [16]): 0%
Activity (Rattus norvegicus [18]): 0%
Activity (Rattus norvegicus [31]): 0%
ED50 (Rattus norvegicus [20]): 46.9 mg/kg
Activity (Rattus norvegicus [32]): 0%
Time to peak locomotor stimulation (Mus musculus [7]): 0 min
Activity (Rattus norvegicus [37]): 66.6%
Activity (Rattus norvegicus [33]): 17%
Activity (Rattus norvegicus [22]): 17%

CC(NC(C)(C)C)C(=O)c1cc(Cl)cc(Cl)c1 (centres undefined)
Ki [1]: > 10 µM
Ki [2]: > 10 µM
Ki [3]: > 10 µM

CC(C(=O)c1cccc(Cl)c1)N(C)C(C)(C)C (centres undefined)
Activity (Rattus norvegicus [8]): 49.4%
ED50 (Mus musculus [4]): 11.7 mg/kg
Activity (Rattus norvegicus [9]): 75%
Ki [1]: > 10 µM
Activity (Mus musculus [5]): 95%
Ki [2]: > 10 µM
Time (Mus musculus [6]): 200 min
Activity (Rattus norvegicus [38]): 66.7%
Time to peak locomotor stimulation (Mus musculus [7]): 80 min

CCN(CC)C(C)C(=O)c1cccc(Cl)c1 (centres undefined)
Activity (Rattus norvegicus [8]): 98.6%
Activity (Rattus norvegicus [9]): 74.8%
ED50 (Rattus norvegicus [10]): 3.2 mg/kg
Activity (Mus musculus [5]): 90%
Ki [2]: > 10 µM
Time (Mus musculus [6]): 130 min
Activity (Rattus norvegicus [17]): 16.7%
Activity (Rattus norvegicus [19]): 0%
Time to peak locomotor stimulation (Mus musculus [7]): 20 min

CC(NC(C)(C)C)C(O)c1ccccc1 (racemic)
Ki [1]: > 10 µM
IC50 [39]: 1.24 µM
Activity (Mus musculus [5]): 41%
Ki [2]: 4 µM
Time (Mus musculus [6]): 390 min
Time to peak locomotor stimulation (Mus musculus [7]): 150 min
Ki [3]: > 10 µM

COC(=O)[C@H]1[C@@H](OC(=O)c2ccccc2)C[C@@H]2CC[C@H]1N2C [COCAINE]
ED50 (Mus musculus [4]): 7.8 mg/kg
ED50 (Rattus norvegicus [10]): 5.9 mg/kg
Time (Mus musculus [6]): 40 min
Time to peak locomotor stimulation (Mus musculus [7]): 0 min
